ChEMBL document CHEMBL3751730, “Synthesis and in vitro antitumor evaluation of dihydroartemisinin-cinnamic acid ester derivatives” (Eur J Med Chem, 2016)

Tests used:
Assay type in all cases: functional, cell-based
[1] = Antiproliferative activity against human PC3 cells after 72 hrs by MTT assay; details: PC-3, 72 h
[2] = Antiproliferative activity against human SGC7901 cells after 72 hrs by MTT assay; details: SGC-7901, 72 h
A549 = experiment: Antiproliferative activity against human A549 cells after 72 hrs by MTT assay; details: A549, 72 h
[3] = Antiproliferative activity against human MDA-MB-435S cells after 72 hrs by MTT assay

Row | Structure (SMILES) | IC50 [1] [µM] | IC50 [2] [µM] | IC50 (A549) [µM] | IC50 [3] [µM]
1 | C[C@@H]1[C@H](OC(=O)CCc2ccccc2)C[C@H]2[C@@H](C)[C@H](OC(=O)CCc3ccccc3)O[C@@H]3O[C@@]4(C)CC[C@@H]1[C@]32OO4 | 20.5 | 87.8 | 43.2 | > 100
2 | C[C@@H]1[C@H](OC(=O)/C=C/c2ccc([N+](=O)[O-])cc2)C[C@H]2[C@@H](C)[C@H](OC(=O)/C=C/c3ccc([N+](=O)[O-])cc3)O[C@@H]3O[C@@]4(C)CC[C@@H]1[C@]32OO4 | 10.7 | 18.8 | > 100 | > 100
3 | COc1ccccc1/C=C/C(=O)O[C@@H]1O[C@@H]2O[C@@]3(C)CC[C@H]4[C@H](C)[C@H](O)C[C@@H]([C@H]1C)[C@@]24OO3 | 74.9 | > 100 | > 100 | 74.1
4 | COc1ccc(/C=C/C(=O)O[C@@H]2O[C@@H]3O[C@@]4(C)CC[C@H]5[C@H](C)[C@H](O)C[C@@H]([C@H]2C)[C@@]35OO4)cc1OC | > 100 | > 100 | 28.9 | 61
5 | C[C@@H]1[C@H](O)C[C@H]2[C@@H](C)[C@H](OC(=O)/C=C/c3ccc(Cl)cc3)O[C@@H]3O[C@@]4(C)CC[C@@H]1[C@]32OO4 | > 100 | > 100 | > 100 | 98.6
6 | COc1ccc(/C=C/C(=O)O[C@@H]2O[C@@H]3O[C@@]4(C)CC[C@H]5[C@H](C)[C@H](O)C[C@@H]([C@H]2C)[C@@]35OO4)cc1 | > 100 | > 100 | > 100 | 87.1
7 | C[C@@H]1[C@H](O)C[C@H]2[C@@H](C)[C@H](OC(=O)/C=C/c3ccc(Br)cc3)O[C@@H]3O[C@@]4(C)CC[C@@H]1[C@]32OO4 | > 100 | > 100 | > 100 | 84.5
8 | C[C@@H]1[C@H](OC(=O)/C=C/c2c(Cl)cccc2Cl)C[C@H]2[C@@H](C)[C@H](OC(=O)/C=C/c3c(Cl)cccc3Cl)O[C@@H]3O[C@@]4(C)CC[C@@H]1[C@]32OO4 | > 100 | 60.8 | > 100 | > 100
9 | C[C@@H]1[C@H](O)C[C@H]2[C@@H](C)[C@H](OC(=O)CCc3ccccc3)O[C@@H]3O[C@@]4(C)CC[C@@H]1[C@]32OO4 | > 100 | > 100 | > 100 | > 100
10 | C[C@@H]1[C@H](O)C[C@H]2[C@@H](C)[C@H](OC(=O)/C=C/c3ccccc3Cl)O[C@@H]3O[C@@]4(C)CC[C@@H]1[C@]32OO4 | > 100 | > 100 | > 100 | > 100
11 | C[C@@H]1[C@H](OC(=O)/C=C/c2ccc(C(F)(F)F)cc2)C[C@H]2[C@@H](C)[C@H](OC(=O)/C=C/c3ccc(C(F)(F)F)cc3)O[C@@H]3O[C@@]4(C)CC[C@@H]1[C@]32OO4 | 43.5 | 39.4 | 5.08 | 67.7
12 | C[C@@H]1[C@H](OC(=O)/C=C/c2ccccc2F)C[C@H]2[C@@H](C)[C@H](OC(=O)/C=C/c3ccccc3F)O[C@@H]3O[C@@]4(C)CC[C@@H]1[C@]32OO4 | 12.5 | > 100 | 4.66 | 18.8
13 | COc1cccc(/C=C/C(=O)O[C@@H]2O[C@@H]3O[C@@]4(C)CC[C@H]5[C@H](C)[C@H](O)C[C@@H]([C@H]2C)[C@@]35OO4)c1 | > 100 | > 100 | > 100 | > 100
14 | C[C@@H]1[C@H](O)C[C@H]2[C@@H](C)[C@H](OC(=O)/C=C/c3ccccc3F)O[C@@H]3O[C@@]4(C)CC[C@@H]1[C@]32OO4 | 89.6 | > 100 | 92.7 | 47.1
15 | Cc1ccc(/C=C/C(=O)O[C@@H]2O[C@@H]3O[C@@]4(C)CC[C@H]5[C@H](C)[C@H](OC(=O)/C=C/c6ccc(C)cc6)C[C@@H]([C@H]2C)[C@@]35OO4)cc1 | 87.2 | > 100 | > 100 | > 100
16 | COc1ccc(/C=C/C(=O)O[C@@H]2O[C@@H]3O[C@@]4(C)CC[C@H]5[C@H](C)[C@H](O)C[C@@H]([C@H]2C)[C@@]35OO4)c(OC)c1OC | > 100 | > 100 | 40.1 | 69.9
17 | C[C@@H]1[C@H](O)C[C@H]2[C@@H](C)[C@H](OC(=O)/C=C/c3ccc(C(F)(F)F)cc3)O[C@@H]3O[C@@]4(C)CC[C@@H]1[C@]32OO4 | > 100 | 85.7 | > 100 | > 100
18 | Cc1ccc(/C=C/C(=O)O[C@@H]2O[C@@H]3O[C@@]4(C)CC[C@H]5[C@H](C)[C@H](O)C[C@@H]([C@H]2C)[C@@]35OO4)cc1 | > 100 | > 100 | > 100 | > 100
19 | C[C@@H]1[C@H](O)C[C@H]2[C@@H](C)[C@H](OC(=O)/C=C/c3ccc(F)cc3)O[C@@H]3O[C@@]4(C)CC[C@@H]1[C@]32OO4 | > 100 | > 100 | > 100 | > 100
20 | C[C@@H]1[C@H](OC(=O)/C=C/c2ccc(Br)cc2)C[C@H]2[C@@H](C)[C@H](OC(=O)/C=C/c3ccc(Br)cc3)O[C@@H]3O[C@@]4(C)CC[C@@H]1[C@]32OO4 | 19.7 | 35.8 | 35.3 | > 100
21 | COc1ccccc1/C=C/C(=O)O[C@@H]1O[C@@H]2O[C@@]3(C)CC[C@H]4[C@H](C)[C@H](OC(=O)/C=C/c5ccccc5OC)C[C@@H]([C@H]1C)[C@@]24OO3 | 11.5 | 46.4 | 2.55 | 52.3
22 | C[C@@H]1[C@H](OC(=O)/C=C/c2ccc(F)cc2)C[C@H]2[C@@H](C)[C@H](OC(=O)/C=C/c3ccc(F)cc3)O[C@@H]3O[C@@]4(C)CC[C@@H]1[C@]32OO4 | > 100 | > 100 | > 100 | > 100
23 | C[C@@H]1[C@H](O)C[C@H]2[C@@H](C)[C@H](OC(=O)/C=C/c3cccc(Cl)c3)O[C@@H]3O[C@@]4(C)CC[C@@H]1[C@]32OO4 | > 100 | > 100 | > 100 | 95.9
24 | C[C@@H]1[C@H](O)C[C@H]2[C@@H](C)[C@H](OC(=O)/C=C/c3ccccc3)O[C@@H]3O[C@@]4(C)CC[C@@H]1[C@]32OO4 | > 100 | > 100 | > 100 | 76.3
25 | C[C@@H]1[C@H](OC(=O)/C=C/c2cccc(Cl)c2)C[C@H]2[C@@H](C)[C@H](OC(=O)/C=C/c3cccc(Cl)c3)O[C@@H]3O[C@@]4(C)CC[C@@H]1[C@]32OO4 | 11.1 | 12 | 2.72 | 22.4
26 | C[C@@H]1[C@H](OC(=O)/C=C/c2ccccc2Cl)C[C@H]2[C@@H](C)[C@H](OC(=O)/C=C/c3ccccc3Cl)O[C@@H]3O[C@@]4(C)CC[C@@H]1[C@]32OO4 | 76.2 | > 100 | 96.2 | > 100
